target: T1, human capsaicin receptor (Homo sapiens, UniProt Q8NER1); assay: Calcium mobilization assay, determination of antagonist activity (Example 6); type: cell-based; set-up: IC50 determined as described in Example 6: scale not given here; details: Table I; IC50 determined as described in Example 6; read-out: IC50
T1 construct: expressed in transfected cells
Procedure: A cDNA encoding full length human capsaicin receptor (SEQ ID NO:1, 2 or 3 of U.S. Pat. No. 6,482,611) is subcloned in the plasmid pBK-CMV (Stratagene, La Jolla, Calif.) for recombinant expression in mammalian cells.
Human embryonic kidney (HEK293) cells are transfected with the pBK-CMV expression construct encoding the full length human capsaicin receptor using standard methods. The transfected cells are selected for two weeks in media containing G418 (400 μg/ml) to obtain a pool of stably transfected cells. Independent clones are isolated from this pool by limiting dilution to obtain clonal stable cell lines for use in subsequent experiments.
This Example illustrates representative calcium mobilization assays for use in evaluating test compounds for agonist and antagonist activity.
Cells transfected with expression plasmids (as described in Example 4) and thereby expressing human capsaicin receptor are seeded and grown to 70-90% confluency in FALCON black-walled, clear-bottomed 96-well plates (#3904, BECTON-DICKINSON, Franklin Lakes, N.J.). The culture medium is emptied from the 96 well plates and FLUO-3 AM calcium sensitive dye (Molecular Probes, Eugene, Oreg.) is added to each well (dye solution: 1 mg FLUO-3 AM, 440 μL DMSO and 440 μl 20% pluronic acid in DMSO, diluted 1:250 in Krebs-Ringer HEPES (KRH) buffer (25 mM HEPES, 5 mM KCl, 0.96 mM NaH2PO4, 1 mM MgSO4, 2 mM CaCl2, 5 mM glucose, 1 mM probenecid, pH 7.4), 50 μl diluted solution per well). Plates are covered with aluminum foil and incubated at 37° C. for 1-2 hours in an environment containing 5% CO2. After the incubation, the dye is emptied from the plates, and the cells are washed once with KRH buffer, and resuspended in KRH buffer.
To measure the ability of a test compound to agonize or antagonize a calcium mobilization response in cells expressing capsaicin receptors to capsaicin or other vanilloid agonist, the EC50 of the agonist capsaicin is first determined. An additional 20 μl of KRH buffer and 1 μl DMSO is added to each well of cells, prepared as described above. 100 μl capsaicin in KRH buffer is automatically transferred by the FLIPR instrument to each well. Capsaicin-induced calcium mobilization is monitored using either FLUOROSKAN ASCENT (Labsystems; Franklin, Mass.) or FLIPR (fluorometric imaging plate reader system; Molecular Devices, Sunnyvale, Calif.) instruments. Data obtained between 30 and 60 seconds after agonist application are used to generate an 8-point concentration response curve, with final capsaicin concentrations of 1 nM to 3 μM. KALEIDAGRAPH software (Synergy Software, Reading, Pa.) is used to fit the data to the equation: y=a*(1/(1+(b/x)^c)) to determine the 50% excitatory concentration (EC50) for the response. In this equation, y is the maximum fluorescence signal, x is the concentration of the agonist or antagonist (in this case, capsaicin), a is the Emax, b corresponds to the EC50 value and c is the Hill coefficient. Determination of Agonist Activity
Test compounds are dissolved in DMSO, diluted in 20 μl KRH buffer so that the final concentration of test compounds in the assay well is between 1 μM and 5 μM, and added to cells prepared as described above. The 96 well plates containing prepared cells and test compounds are incubated in the dark, at room temperature for 0.5 to 6 hours. It is important that the incubation not continue beyond 6 hours. Just prior to determining the fluorescence response, 100 μl capsaicin in KRH buffer at twice the EC50 concentration determined as described above is automatically added by the FLIPR instrument to each well of the 96 well plate for a final sample volume of 200 μl and a final capsaicin concentration equal to the EC50. The final concentration of test compounds in the assay wells is between 1 μM and 5 μM. […]

T1 sequence (Q8NER1 whole entry): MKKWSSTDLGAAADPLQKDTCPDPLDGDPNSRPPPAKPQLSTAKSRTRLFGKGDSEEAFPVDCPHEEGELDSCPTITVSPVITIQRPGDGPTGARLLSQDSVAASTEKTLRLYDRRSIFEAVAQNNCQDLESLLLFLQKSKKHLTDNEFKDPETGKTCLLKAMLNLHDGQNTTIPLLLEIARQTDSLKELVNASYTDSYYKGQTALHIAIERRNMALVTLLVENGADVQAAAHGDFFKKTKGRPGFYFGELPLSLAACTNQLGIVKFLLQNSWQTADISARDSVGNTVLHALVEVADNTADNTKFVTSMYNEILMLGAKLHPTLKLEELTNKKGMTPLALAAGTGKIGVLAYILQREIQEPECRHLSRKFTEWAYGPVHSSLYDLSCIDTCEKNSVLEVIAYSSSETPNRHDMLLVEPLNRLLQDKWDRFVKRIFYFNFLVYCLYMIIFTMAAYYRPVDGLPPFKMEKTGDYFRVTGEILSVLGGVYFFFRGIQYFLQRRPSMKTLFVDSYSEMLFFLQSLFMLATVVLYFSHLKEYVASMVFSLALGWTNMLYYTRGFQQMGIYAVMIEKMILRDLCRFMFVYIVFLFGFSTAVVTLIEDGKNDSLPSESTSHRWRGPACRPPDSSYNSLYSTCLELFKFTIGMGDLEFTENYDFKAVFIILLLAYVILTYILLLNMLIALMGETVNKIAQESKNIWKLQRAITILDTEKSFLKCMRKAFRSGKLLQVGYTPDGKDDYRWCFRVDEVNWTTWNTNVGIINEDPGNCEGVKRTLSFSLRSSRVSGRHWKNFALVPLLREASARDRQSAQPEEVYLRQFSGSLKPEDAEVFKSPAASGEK

SMILES	IC50
Oc1ccc(C(F)(F)F)c(-c2ccc3c(Nc4ccc(C(F)(F)F)cn4)ccnc3n2)n1 [compound 21, 5-Trifluoromethyl-6-[5-(5-trifluoromethyl-pyridin-2-ylamino)-[1,8]naphthyridin-2-yl]-pyridin-2-ol]	< 1 µM
O=C(O)c1cnc(-c2ccc3c(Nc4ccc(C(F)(F)F)cn4)ccnc3n2)c(C(F)(F)F)c1 [compound 22, 5-Trifluoromethyl-6-[5-(5-trifluoromethyl-pyridin-2-ylamino)-[1,8]naphthyridin-2-yl]-nicotinic acid]	< 1 µM
FC(F)(F)c1ccc(Nc2ccnc3nc(-c4nc(Cl)ccc4C(F)(F)F)ccc23)nc1 [compound 23, [7-(6-Chloro-3-trifluoromethyl-pyridin-2-yl)-[1,8]naphthyridin-4-yl]-(5-trifluoromethyl-pyridin-2-yl)-amine]	< 1 µM
N#Cc1ccc(C(F)(F)F)c(-c2ccc3c(Nc4ccc(C(F)(F)F)cn4)ccnc3n2)n1 [compound 24, 5-Trifluoromethyl-6-[5-(5-trifluoromethyl-pyridin-2-ylamino)-[1,8]naphthyridin-2-yl]-pyridine-2-carbonitrile]	< 1 µM
NC(=O)c1ccc(C(F)(F)F)c(-c2ccc3c(Nc4ccc(C(F)(F)F)cn4)ccnc3n2)n1 [compound 25, 5-Trifluoromethyl-6-[5-(5-trifluoromethyl-pyridin-2-ylamino)-[1,8]naphthyridin-2-yl]-pyridine-2-carboxylic acid amide]	< 1 µM
O=C(O)c1ccc(C(F)(F)F)c(-c2ccc3c(Nc4ccc(C(F)(F)F)cn4)ccnc3n2)n1 [compound 26, 5-Trifluoromethyl-6-[5-(5-trifluoromethyl-pyridin-2-ylamino)-[1,8]naphthyridin-2-yl]-pyridine-2-carboxylic acid]	< 1 µM
Cc1ccc(C(F)(F)F)c(-c2ccc3c(Nc4ccc(C(F)(F)F)cn4)ccnc3n2)n1 [compound 28, [7-(6-Methyl-3-trifluoromethyl-pyridin-2-yl)-[1,8]naphthyridin-4-yl]-(5-trifluoromethyl-pyridin-2-yl)-amine]	< 1 µM
CC(=O)c1ccc(C(F)(F)F)c(-c2ccc3c(Nc4ccc(C(F)(F)F)cn4)ccnc3n2)n1 [compound 29, 1-{5-Trifluoromethyl-6-[5-(5-trifluoromethyl-pyridin-2-ylamino)-[1,8]naphthyridin-2-yl]-pyridin-2-yl}-ethanone]	< 1 µM

Next, values leading:

IC50	SMILES
< 1 µM	FC(F)(F)c1ccc(Nc2ccnc3nc(-c4ncc(Br)cc4C(F)(F)F)cnc23)nc1 [compound 31, [3-(5-Bromo-3-trifluoromethyl-pyridin-2-yl)-pyrido[2,3-b]pyrazin-8-yl]-(5-trifluoromethyl-pyridin-2-yl)-amine]
< 1 µM	N#Cc1cnc(-c2cnc3c(Nc4ccc(C(F)(F)F)cn4)ccnc3n2)c(C(F)(F)F)c1 [compound 32, 5-Trifluoromethyl-6-[8-(5-trifluoromethyl-pyridin-2-ylamino)-pyrido[2,3-b]pyrazin-3-yl]-nicotinonitrile]
< 1 µM	O=C(O)c1cnc(-c2cnc3c(Nc4ccc(C(F)(F)F)cn4)ccnc3n2)c(C(F)(F)F)c1 [compound 33, 5-(trifluoromethyl)-6-(8-{[5-(trifluoromethyl)-2-pyridinyl]amino}pyrido[2,3-b]pyrazin-3-yl)nicotinic acid]

same assay, conditions: cells expressing human capsaicin receptor; capsaicin at EC50

IC50 determined as described in Example 6	SMILES
less	N#Cc1cnc(-c2cnc3c(Nc4ccc(C(F)(F)F)cn4)ccnc3n2)c(C(F)(F)F)c1 [Compound 11, 5-(Trifluoromethyl)-6-(8-(5-(trifluoromethyl)pyridin-2-ylamino)pyrido[2,3-b]pyrazin-3-yl)nicotinonitrile]

same assay, conditions: cells expressing human capsaicin receptor; capsaicin at EC50; read-out: IC50 determined as described in Example 6

SMILES	IC50
Cc1cc(F)cnc1-c1ccc2c(Nc3ccc(C(F)(F)F)cn3)ccnc2n1 [Compound 2, 7-(5-Fluoro-3-methylpyridin-2-yl)-N-(5-(trifluoromethyl)ipyridin-2-yl)-1,8-naphthyridin-4-amine]	< 1 µM
COc1ccc(C(F)(F)F)c(-c2ccc3c(Nc4ccc(C(F)(F)F)cn4)ccnc3n2)n1 [Compound 5, [7-(6-Methoxy-3-trifluoromethyl-pyridin-2-yl)-[1,8]naphthyridin-4-yl]-(5-trifluoromethyl-pyridin-2-yl)-amine]	< 1 µM
COc1ccc(C(F)(F)F)c(-c2ccc3c(Nc4ncc(C(F)(F)F)cn4)ccnc3n2)n1 [Compound 6, [7-(6-Methoxy-3-trifluoromethyl-pyridin-2-yl)-[1,8]naphthyridin-4-yl]-(5-trifluoromethyl-pyrimidin-2-yl)-amine]	< 1 µM
N#Cc1cnc(-c2ccc3c(Nc4ccc(C(F)(F)F)cn4)ccnc3n2)c(C(F)(F)F)c1 [Compound 7, 5-Trifluoromethyl-6-[5-(5-trifluoromethyl-pyridin-2-ylamino)-[1,8]naphthyridin-2-yl]-nicotinonitrile]	< 1 µM
NC(=O)c1cnc(-c2ccc3c(Nc4ccc(C(F)(F)F)cn4)ccnc3n2)c(C(F)(F)F)c1 [Compound 8, 5-Trifluoromethyl-6-[5-(5-trifluoromethyl-pyridin-2-ylamino)-[1,8]naphthyridin-2-yl]-nicotinamide]	< 1 µM
NC(=O)c1cnc(-c2cnc3c(Nc4cnc5ccccc5n4)ccnc3n2)c(C(F)(F)F)c1 [Compound 14, 6-(8-(Quinoxalin-2-ylamino)pyrido[2,3-b]pyrazin-3-yl)-5-(trifluoromethyl)nicotinamide]	< 1 µM

Results, then the compound that gave them:

IC50	SMILES
< 1 µM	Nc1cnc(-c2ccc3c(Nc4ccc(C(F)(F)F)cn4)ccnc3n2)c(C(F)(F)F)c1 [Compound 3, 7-(5-Amino-3-(trifluoromethyl)pyridin-2-yl)-N-(5-(trifluoromethyl)pyridin-2-yl)-1,8-naphthyridin-4-amine]
< 1 µM	NC(=O)c1cnc(-c2cnc3c(Nc4ccc(C(F)(F)F)cn4)ccnc3n2)c(C(F)(F)F)c1 [Compound 4, 5-Trifluoromethyl-6-[8-(5-trifluoromethyl-pyridin-2-ylamino)-pyrido[2,3-b]pyrazin-3-yl]-nicotinamide]
< 1 µM	CCOc1nc(Nc2ccnc3nc(-c4ncc(C(N)=O)cc4C(F)(F)F)cnc23)ccc1C(F)(F)F [Compound 9, 6-(8-(6-Ethoxy-5-(trifluoromethyl)pyridin-2-ylamino)pyrido[2,3-b]pyrazin-3-yl)-5-(trifluoromethyl)nicotinamide]
< 1 µM	FC(F)(F)c1ccc(Nc2ccnc3nc(-c4ncc(Br)cc4C(F)(F)F)cnc23)nc1 [Compound 10, 3-(5-Bromo-3-(trifluoromethyl)pyridin-2-yl)-N-(5-(trifluoromethyl)pyridin-2-yl)pyrido[2,3-b]pyrazin-8-amine]
< 1 µM	O=C(O)c1cnc(-c2cnc3c(Nc4ccc(C(F)(F)F)cn4)ccnc3n2)c(C(F)(F)F)c1 [Compound 13, 5-(Trifluoromethyl)-6-(8-(5-(trifluoromethyl)pyridin-2-ylamino)pyrido[2,3-b]pyrazin-3-yl)nicotinic acid]
< 1 µM	NC(=O)c1cnc(-c2cnc3c(Nc4cnc(C(F)(F)F)cn4)ccnc3n2)c(C(F)(F)F)c1 [Compound 15, 5-(Trifluoromethyl)-6-(8-(5-(trifluoromethyl)pyrazin-2-ylamino)pyrido[2,3-b]pyrazin-3-yl)nicotinamide]
< 1 µM	CCOc1cc(C(F)(F)F)c(-c2cnc3c(Nc4ccc(C(F)(F)F)cn4)ccnc3n2)nn1 [Compound 16]
< 1 µM	FC(F)(F)c1ccc(Nc2ccnc3nc(-c4nnc(N5CCOCC5)cc4C(F)(F)F)cnc23)nc1 [Compound 19]
< 1 µM	FC(F)(F)c1ccc(Nc2ccnc3nc(-c4nnc(NCc5cccnc5)cc4C(F)(F)F)cnc23)nc1 [Compound 20]

Source: patent US7935702B2, “Substituted biaryl quinolin-4-ylamine analogues” (Neurogen Corporation, priority 2004, dated 2011)
